# Data: patent US20150141336A1, “Pancreatic Peptide Compounds and Use” (Novo Nordisk A/S, priority 2012, published 2015)
# Numbered stars: 1 amine (or outer) side, 2 acyl side, 3 side chain; on linkers, the order of the positions; unused ones are H or OH. Side chains are listed from the residue outwards. Peptide text beside a SMILES is read from it. * marks the point of attachment. C18 diacid = O=C(O)CCCCCCCCCCCCCCCCC(=O)*; γGlu = O=C(O)[C@H](CCC(=O)[*:2])N[*:1]; AEEA = NCCOCCOCC(=O)O
# Experiment: Assay (II) PK i.v. minipig, in vivo half-life
# Design: species or system Göttingen mini-pigs
# Settings: male, Göttingen, minipig, iv, Half-life minipig, Assay (II)
# Protocol: An assay useful for measuring the pharmacokinetic (PK) profile of the PP peptide is the following mini-pig PK assay.
# Five male Göttingen mini-pigs weighing approximately 18 to 22 kg from Ellegaard Göttingen Minipigs NS, Denmark are included in the study. The mini-pigs have two central venous catheters inserted which are used for intra venous (i.v.) dosing and blood sampling. The test compound is dissolved in 50 mM K2HPO4, 0.05% tween 80, pH=8.0 to a concentration of 180 nmol/ml. For comparison a control compound, such as human PP(1-36), may be administered. The pigs are dosed with 6 nmol test compound/kg body weight. Blood samples are taken at the following time points: pre-dose, 30 minutes, 1, 2, 4, 8, 24, 48, 72, 96, 120, 168 and 240 hours post dosing. The blood samples were collected into test tubes containing EDTA buffer for stabilization and kept on ice for max. 20 minutes before centrifugation. The centrifugation procedure to separate plasma may be: 4° C., approx. 2500 g for 10 minutes. Plasma is collected and immediately transferred to Micronic tubes stored at −20° C. until assayed.
# The test compounds were assayed in plasma by Turbulent Flow Chromatography coupled to Liquid Chromatography with subsequent Tandem Mass Spectrometric Detection (TFC/LC/MS/MS). Positive mode ionization and Multiple Reaction Monitoring (MRM) of a multiple protonated species fragmented to a singly charged ion was employed for selectivity. The selectivity of the method allows multiple compounds to be quantified in one sample.
# The concentrations of the test compound in samples of unknown concentration were calculated using the peak area as a function of amount. Calibration graphs based on plasma samples spiked with the analyte were constructed by regression analysis. Typical dynamic range for standard assay was 1-2000 nmol/I. The method performance was assured by co-assaying quality control (QC) samples in duplicate at three concentration levels.
# Stock and working solutions of analytes were prepared in plasma and incubated by 37° C. for 1 hour.
# Sample Preparation: 40.0 μl EDTA-plasma was added 160 μl 50% methanol, 1% formic acid, then vortexed and centrifuged at 16457 g at 4° C. for 20 minutes. The supernatant was transferred to a 96 well plate, plates incubated with 0.4% BSA, 37° C. for ½ hour. Injection volume was 25 μl.
# The analysis was carried out on a Sciex API 3000 mass spectrometer (MDS/Sciex, Concord, ON, Canada) using a TurbolonSpray interface. The TFC/LC system consisted of two Flux Rheos 2000 quaternary pumps, a Cohesive VIM module (Cohesive Technologies, Franklin, Mass., USA) and a CTC LC/PAL auto sampler (CTC Analytics, Zingen, Switzerland). The centrifuge employed was a HettichMikro 22R (A. Hettich, Tuttlingen, Germany). For sample clean up a TurboFlow C8 column (0.5×50 mm) (Cohesive Technologies/Thermofisher) was used and the LC separation was done on a Proteo 4 μm column (2.0×50 mm) (Phenomenex, Torrance, Calif., USA). Eluents were isocratic and gradient combinations of methanol, acetonitril, Milli-Q water and formic acid.
# Non-compartmental analysis (NCA): Plasma concentration-time profiles are analyzed by non-compartmental pharmacokinetics analysis (NCA) using WinNonlin Professional 5.0 (Pharsight Inc., Mountain View, Calif., USA). NCA is performed using the individual plasma concentration-time profiles from each animal.
row,half-life,Structure (SMILES)
1,0.708 days,CC[C@H](C)[C@H](NC(=O)[C@H](Cc1ccc(O)cc1)NC(=O)[C@H](CCCNC(=N)N)NC(=O)[C@H](CCCNC(=N)N)NC(=O)[C@H](CC(C)C)NC(=O)[C@H](CC(=O)O)NC(=O)[C@H](C)NC(=O)[C@H](C)NC(=O)[C@H](Cc1ccc(O)cc1)NC(=O)[C@H](CCC(N)=O)NC(=O)[C@H](C)NC(=O)[C@H](CCSC)NC(=O)[C@H](CCC(N)=O)NC(=O)[C@H](CCC(=O)O)NC(=O)[C@@H]1CCCN1C(=O)[C@@H](NC(=O)[C@H](CCCCNC(=O)COCCOCCNC(=O)COCCOCCNC(=O)CC[C@H](NC(=O)CCCCCCCCCCCCCCCCC(=O)O)C(=O)O)NC(=O)[C@H](CC(N)=O)NC(=O)[C@H](CC(=O)O)NC(=O)CNC(=O)[C@@H]1CCCN1C(=O)[C@H](Cc1ccc(O)cc1)NC(=O)[C@@H](NC(=O)[C@@H]1CCCN1C(=O)[C@H](CCC(=O)O)NC(=O)[C@@H](N)CC(C)C)C(C)C)[C@@H](C)O)C(=O)N[C@@H](CC(N)=O)C(=O)N[C@@H](CCSC)C(=O)N[C@@H](CC(C)C)C(=O)N[C@H](C(=O)N[C@@H](CCCNC(=N)N)C(=O)N1CCC[C@H]1C(=O)N[C@@H](CCCNC(=N)N)C(=O)N[C@@H](Cc1ccc(O)cc1)C(N)=O)[C@@H](C)O [Compound BD]
2,3.21 days,CC[C@H](C)[C@H](NC(=O)[C@H](Cc1ccc(O)cc1)NC(=O)[C@H](CCCNC(=N)N)NC(=O)[C@H](CCCNC(=N)N)NC(=O)[C@H](CC(C)C)NC(=O)[C@H](CC(=O)O)NC(=O)[C@H](C)NC(=O)[C@H](C)NC(=O)[C@H](Cc1ccc(O)cc1)NC(=O)[C@H](CCC(N)=O)NC(=O)[C@H](C)NC(=O)[C@H](CCSC)NC(=O)[C@H](CCC(N)=O)NC(=O)[C@H](CCC(=O)O)NC(=O)[C@@H]1CCCN1C(=O)[C@@H](NC(=O)[C@H](C)NC(=O)[C@H](CC(N)=O)NC(=O)[C@H](CC(=O)O)NC(=O)CNC(=O)[C@@H]1CCCN1C(=O)[C@H](Cc1ccc(O)cc1)NC(=O)[C@@H](NC(=O)[C@@H]1CCCN1C(=O)[C@H](CCC(=O)O)NC(=O)[C@H](CC(C)C)NC(=O)[C@@H]1CCCN1)C(C)C)[C@@H](C)O)C(=O)N[C@@H](CC(N)=O)C(=O)N[C@@H](CCCCNC(=O)COCCOCCNC(=O)COCCOCCNC(=O)CC[C@H](NC(=O)CCCCCCCCCCCCCCCCC(=O)O)C(=O)O)C(=O)N[C@@H](CC(C)C)C(=O)N[C@H](C(=O)N[C@@H](CCCNC(=N)N)C(=O)N1CCC[C@H]1C(=O)N[C@@H](CCCNC(=N)N)C(=O)N[C@@H](Cc1ccc(O)cc1)C(N)=O)[C@@H](C)O [Compound D] (H-PLEPVYPGDNATPEQMAQYAADLRRYINK([AEEA-AEEA-γGlu-C18 diacid])LTRPRY-NH2; N-terminus and C-terminus assumed)
3,4.58 days,CC[C@H](C)[C@H](NC(=O)[C@H](Cc1ccc(O)cc1)NC(=O)[C@H](CCCNC(=N)N)NC(=O)[C@H](CCCNC(=N)N)NC(=O)[C@H](CC(C)C)NC(=O)[C@H](CC(=O)O)NC(=O)[C@H](C)NC(=O)[C@H](C)NC(=O)[C@H](Cc1ccc(O)cc1)NC(=O)[C@H](CCC(N)=O)NC(=O)[C@H](C)NC(=O)[C@H](CCSC)NC(=O)[C@H](CCC(N)=O)NC(=O)[C@H](CCC(=O)O)NC(=O)[C@@H]1CCCN1C(=O)[C@@H](NC(=O)[C@H](C)NC(=O)[C@H](CC(N)=O)NC(=O)[C@H](CC(=O)O)NC(=O)CNC(=O)[C@@H]1CCCN1C(=O)[C@H](Cc1ccc(O)cc1)NC(=O)[C@@H](NC(=O)[C@@H]1CCCN1C(=O)[C@H](CCC(=O)O)NC(=O)[C@H](CC(C)C)NC(=O)[C@@H]1CCCN1)C(C)C)[C@@H](C)O)C(=O)N[C@@H](CCCCNC(=O)COCCOCCNC(=O)COCCOCCNC(=O)CC[C@H](NC(=O)CCCCCCCCCCCCCCCCC(=O)O)C(=O)O)C(=O)N[C@@H](CCSC)C(=O)N[C@@H](CC(C)C)C(=O)N[C@H](C(=O)N[C@@H](CCCNC(=N)N)C(=O)N1CCC[C@H]1C(=O)N[C@@H](CCCNC(=N)N)C(=O)N[C@@H](Cc1ccc(O)cc1)C(N)=O)[C@@H](C)O [Compound E] (H-PLEPVYPGDNATPEQMAQYAADLRRYIK([AEEA-AEEA-γGlu-C18 diacid])MLTRPRY-NH2; N-terminus and C-terminus assumed)
4,3.33 days,CC[C@H](C)[C@H](NC(=O)[C@H](Cc1ccc(O)cc1)NC(=O)[C@H](CCCNC(=N)N)NC(=O)[C@H](CCCNC(=N)N)NC(=O)[C@H](CC(C)C)NC(=O)[C@H](CC(=O)O)NC(=O)[C@H](C)NC(=O)[C@H](C)NC(=O)[C@H](Cc1ccc(O)cc1)NC(=O)[C@H](CCC(N)=O)NC(=O)[C@H](C)NC(=O)[C@H](CCSC)NC(=O)[C@H](CCC(N)=O)NC(=O)[C@H](CCC(=O)O)NC(=O)[C@@H]1CCCN1C(=O)[C@@H](NC(=O)[C@H](C)NC(=O)[C@H](CC(N)=O)NC(=O)[C@H](CC(=O)O)NC(=O)CNC(=O)[C@@H]1CCCN1C(=O)[C@H](Cc1ccc(O)cc1)NC(=O)[C@@H](NC(=O)[C@@H]1CCCN1C(=O)[C@H](CCC(=O)O)NC(=O)[C@@H](N)CC(C)C)C(C)C)[C@@H](C)O)C(=O)N[C@@H](CC(N)=O)C(=O)N[C@@H](CCSC)C(=O)N[C@@H](CCCCNC(=O)COCCOCCNC(=O)COCCOCCNC(=O)CC[C@H](NC(=O)CCCCCCCCCCCCCCCCC(=O)O)C(=O)O)C(=O)N[C@H](C(=O)N[C@@H](CCCNC(=N)N)C(=O)N1CCC[C@H]1C(=O)N[C@@H](CCCNC(=N)N)C(=O)N[C@@H](Cc1ccc(O)cc1)C(N)=O)[C@@H](C)O [Compound AK] (H-LEPVYPGDNATPEQMAQYAADLRRYINMK([AEEA-AEEA-γGlu-C18 diacid])TRPRY-NH2; N-terminus and C-terminus assumed)
5,1.38 days,CC[C@H](C)[C@H](NC(=O)[C@H](Cc1ccc(O)cc1)NC(=O)[C@H](CCCNC(=N)N)NC(=O)[C@H](CCCNC(=N)N)NC(=O)[C@H](CC(C)C)NC(=O)[C@H](CC(=O)O)NC(=O)[C@H](C)NC(=O)[C@H](C)NC(=O)[C@H](Cc1ccc(O)cc1)NC(=O)[C@H](CCCCNC(=O)COCCOCCNC(=O)COCCOCCNC(=O)CC[C@H](NC(=O)CCCCCCCCCCCCCCCCC(=O)O)C(=O)O)NC(=O)[C@H](C)NC(=O)[C@H](CCSC)NC(=O)[C@H](CCC(N)=O)NC(=O)[C@H](CCC(=O)O)NC(=O)[C@@H]1CCCN1C(=O)[C@@H](NC(=O)[C@H](C)NC(=O)[C@H](CC(N)=O)NC(=O)[C@H](CC(=O)O)NC(=O)CNC(=O)[C@@H]1CCCN1C(=O)[C@H](Cc1ccc(O)cc1)NC(=O)[C@@H](NC(=O)[C@@H]1CCCN1C(=O)[C@H](CCC(=O)O)NC(=O)[C@@H](N)CC(C)C)C(C)C)[C@@H](C)O)C(=O)N[C@@H](CC(N)=O)C(=O)N[C@@H](CCSC)C(=O)N[C@@H](CC(C)C)C(=O)N[C@H](C(=O)N[C@@H](CCCNC(=N)N)C(=O)N1CCC[C@H]1C(=O)N[C@@H](CCCNC(=N)N)C(=O)N[C@@H](Cc1ccc(O)cc1)C(N)=O)[C@@H](C)O [Compound AW] (H-LEPVYPGDNATPEQMAK([AEEA-AEEA-γGlu-C18 diacid])YAADLRRYINMLTRPRY-NH2; N-terminus and C-terminus assumed)
6,4 days,CC[C@H](C)[C@H](NC(=O)[C@H](CCCCNC(=O)COCCOCCNC(=O)COCCOCCNC(=O)CC[C@H](NC(=O)CCCCCCCCCCCCCCCCC(=O)O)C(=O)O)NC(=O)[C@H](CCCNC(=N)N)NC(=O)[C@H](CCCNC(=N)N)NC(=O)[C@H](CC(C)C)NC(=O)[C@H](CC(=O)O)NC(=O)[C@H](C)NC(=O)[C@H](C)NC(=O)[C@H](Cc1ccc(O)cc1)NC(=O)[C@H](CCC(N)=O)NC(=O)[C@H](C)NC(=O)[C@H](CCSC)NC(=O)[C@H](CCC(N)=O)NC(=O)[C@H](CCC(=O)O)NC(=O)[C@@H]1CCCN1C(=O)[C@@H](NC(=O)[C@H](C)NC(=O)[C@H](CC(N)=O)NC(=O)[C@H](CC(=O)O)NC(=O)CNC(=O)[C@@H]1CCCN1C(=O)[C@H](Cc1ccc(O)cc1)NC(=O)[C@@H](NC(=O)[C@@H]1CCCN1C(=O)[C@H](CCC(=O)O)NC(=O)[C@H](CC(C)C)NC(=O)[C@@H]1CCCN1)C(C)C)[C@@H](C)O)C(=O)N[C@@H](CC(N)=O)C(=O)N[C@@H](CCSC)C(=O)N[C@@H](CC(C)C)C(=O)N[C@H](C(=O)N[C@@H](CCCNC(=N)N)C(=O)N1CCC[C@H]1C(=O)N[C@@H](CCCNC(=N)N)C(=O)N[C@@H](Cc1ccc(O)cc1)C(N)=O)[C@@H](C)O [Compound G] (H-PLEPVYPGDNATPEQMAQYAADLRRK([AEEA-AEEA-γGlu-C18 diacid])INMLTRPRY-NH2; N-terminus and C-terminus assumed)
